Reference: PubChem BioAssay (NCI)
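Step 1: Grow cells in 96-well plates. Step 2: Expose to compound for 48 hours at 5 concentrations. Step 3: Interpolate endpoints linearly; if unreached, use highest concentration. Abbreviation: GI50, concentration required for 50% inhibition of growth. At the TGI there is no net growth.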 Where a SMILES comes first, the peptide text is derived from it. [ ]: non-standard residue; d: D form.

Tests used:
Test in all cases: NCI tumour cell line growth inhibition, 48 h
NCI-H460 lung = test system: NCI-H460 lung
RXF 393 renal = test system: RXF 393 renal
HT29 colon = test system: HT29 colon
OVCAR-4 ovarian = test system: OVCAR-4 ovarian
SF-268 CNS = test system: SF-268 CNS
LOX IMVI melanoma = test system: LOX IMVI melanoma
SK-MEL-5 melanoma = test system: SK-MEL-5 melanoma
ACHN renal = test system: ACHN renal
HL-60(TB) leukemia = test system: HL-60(TB) leukemia
SR leukemia = test system: SR leukemia

Structure (SMILES) | TGI (NCI-H460 lung) | TGI (RXF 393 renal) | TGI (HT29 colon) | TGI (OVCAR-4 ovarian) | TGI (SF-268 CNS) | TGI (LOX IMVI melanoma) | TGI (SK-MEL-5 melanoma) | TGI (ACHN renal) | TGI (HL-60(TB) leukemia) | GI50 (NCI-H460 lung) | GI50 (RXF 393 renal) | GI50 (HT29 colon) | GI50 (HL-60(TB) leukemia) | GI50 (OVCAR-4 ovarian) | GI50 (SF-268 CNS) | GI50 (LOX IMVI melanoma) | GI50 (SK-MEL-5 melanoma) | GI50 (ACHN renal) | TGI (SR leukemia)
CC1OC(=O)N2CCC=CC12 (stereo unspecified) | > 100 µM | > 100 µM | > 100 µM | > 100 µM | > 100 µM | > 100 µM | > 100 µM | > 100 µM |  |  |  |  |  |  |  |  |  |  | 
CSCC[C@H](NC(=O)[C@@H](N)CC(N)=O)C(=O)N[C@@H](Cc1c[nH]c2ccccc12)C(=O)N[C@@H](CCC(N)=O)C(=O)N[C@@H](CCC(=O)O)C(=O)N[C@H](C(=O)NCC(=O)N[C@@H](CCCCN)C(=O)N[C@H](C)C(=O)O)C(C)C (H-NMWQEVGK[dA]-OH) | > 100 µM | > 100 µM | > 100 µM | > 100 µM | > 100 µM | > 100 µM | > 100 µM | > 100 µM | > 100 µM |  |  |  |  |  |  |  |  |  | 
Cc1c(C2CCSc3ccccc3N2)sc2ccccc12 (stereo unspecified) | > 100 µM | > 100 µM | > 100 µM | > 100 µM | > 100 µM | > 100 µM | > 100 µM | > 100 µM | > 100 µM |  |  |  |  |  |  |  |  |  | 
COC(=O)C(C)Oc1ccc(O)cc1 (stereo unspecified) | > 100 µM |  | > 100 µM | > 100 µM | 44.5 µM |  | > 100 µM | > 100 µM | > 100 µM |  |  |  |  |  |  |  |  |  | 
N/C(CC(=O)NOC(=O)c1ccccc1)=N/OC(=O)c1ccccc1 | > 100 µM | 60.6 µM | > 100 µM | 75 µM | 75.1 µM | 38.5 µM | > 100 µM | > 100 µM | > 100 µM |  |  |  |  |  |  |  |  |  | 
O=C(N/C(=C\c1ccc(F)cc1)c1nc2ccccc2[nH]1)c1ccccc1 | > 100 µM | > 100 µM | > 100 µM | > 100 µM | > 100 µM | > 100 µM | > 100 µM | > 100 µM |  |  |  |  |  |  |  |  |  |  | 
COc1ccc(C2C3=C(COC3=O)N(CCO)c3cc4c(cc32)CCC4)cc1 (stereo unspecified) | 26.9 µM | 27.1 µM | 24.9 µM | > 50 µM | > 50 µM | > 50 µM | > 50 µM | > 50 µM | 3.98 µM | 2370 nM | 4240 nM | 1700 nM | 1180 nM | 5.46 µM | 7050 nM | 3.1 µM | 2380 nM | 24000 nM | 
CC1/C(=N/O)CC(c2ccccc2)N(N=O)C1c1ccccc1 (stereo unspecified) | > 100 µM | > 100 µM | > 100 µM | > 100 µM | > 100 µM | > 100 µM | > 100 µM | > 100 µM | > 100 µM |  |  |  |  |  |  |  |  |  | 
CC[C@@H](C(=O)[C@@H](C)[C@@H](O)[C@H](C)[C@@H]1O[C@@H]([C@@H](CC)C(=O)O)CC[C@@H]1C)[C@H]1O[C@]2(C=C[C@@H](O)[C@]3(CC[C@@](C)([C@H]4CC[C@](O)(CC)[C@H](C)O4)O3)O2)[C@H](C)C[C@@H]1C | 11.9 µM | 2.64 µM | 15 µM | 34 µM | 24.8 µM | 12.9 µM | 1.61 µM | 49.2 µM | 0.815 µM | 441 nM | 114 nM | 331 nM | 140 nM | 1.12 µM | 1930 nM | 0.596 µM | 401 nM | 1390 nM | 
C=CCCC(=O)CC(=O)OCc1ccccc1 | > 100 µM |  | > 100 µM | > 100 µM | > 100 µM | > 100 µM | > 100 µM | > 100 µM | > 100 µM |  |  |  |  |  |  |  |  |  | 
O=[N+]([O-])c1ccc2nc(-c3ccc(Cl)cc3)[nH]c2c1 | 45.4 µM |  | 32.8 µM | > 100 µM | 37.5 µM | 35.3 µM | 29.7 µM | 67.9 µM |  |  |  |  |  |  |  |  |  |  | 79.9 µM
CNc1nc(-c2ccc3c(N)n[nH]c3c2)cc(N2C[C@@H](C(=O)NC3CCCCC3)CC[C@H]2C)n1 | 15.7 µM | 8.78 µM | 17.1 µM | 23.1 µM | 19 µM | 19.4 µM | 13.9 µM | 19.9 µM | 18.5 µM | 1500 nM | 1310 nM | 2250 nM | 2680 nM | 3.6 µM | 2980 nM | 3.8 µM | 2840 nM | 2810 nM | 
Cc1nc(-n2nc(-c3ccccc3)cc2-c2ccccc2)sc1C(=O)/C=C/c1cccc([N+](=O)[O-])c1 | 92 µM | 29.8 µM | 28.1 µM |  | 31.2 µM | 36.6 µM | 26.7 µM | > 100 µM | 31.3 µM |  |  |  |  |  |  |  |  |  | 
COC1CC(n2cc(F)c(N)nc2=O)OC1CO (stereo unspecified) | > 100 µM | > 100 µM | > 100 µM | > 100 µM | > 100 µM | > 100 µM | > 100 µM | > 100 µM | > 100 µM |  |  |  |  |  |  |  |  |  | 
